Laboratory results as given in patent US20110045101A1, “FUNGICIDAL SUBSTITUTED AZOLES” (E.I. Du Pont De Nemours and Company, priority 2009, published 2011).
Marks after values point to notes of the source that are not given here.

Legend:
Assay type in all cases: in vivo
[1] = system: Puccinia recondita f. sp. tritici; assay: Test I: wheat leaf rust on wheat seedlings, sprayed the day before inoculation, visual disease rating; details: 100 = 100% disease control; for pest or weed control at 200 ppm: Puccinia recondita, 168 h
Summary of the method: (§1)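 Plants received a run-off spray at 200 ppm (equivalent to 500 g/ha) or, for starred values, 40 ppm. Formulation used acetone at 3% of volume in a 50/50 acetone/water mix carrying 250 ppm Trem® 014.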

Septoria tritici = assay: Test G: wheat leaf blotch on wheat seedlings, sprayed the day before inoculation, visual disease rating; details: 100 = 100% disease control; for pest or weed control at 200 ppm: Zymoseptoria tritici, 504 h
Summary of the method: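 Wheat seedlings were sprayed with compound suspensions, 200 ppm unless starred (40 ppm). After next-day spore inoculation, plants spent 48 h saturated at 24° C, then 19 days at 20° C, when disease was rated visually.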

Botrytis cinerea = assay: Test C: tomato Botrytis on tomato seedlings, sprayed the day before inoculation, visual disease rating; details: 100 = 100% disease control; for pest or weed control at 200 ppm: Botrytis cinerea, 120 h
Summary of the method: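 Rate: 200 ppm sprayed to run-off, corresponding to 500 g/ha; flagged values used 40 ppm. Vehicle was aqueous acetone (1:1) plus 250 ppm surfactant, compounds predissolved in acetone at 3% of volume. Plants were tomato seedlings.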

Septoria nodorum = assay: Test F: wheat glume blotch on wheat seedlings, sprayed the day before inoculation, visual disease rating; details: 100 = 100% disease control; for pest or weed control at 200 ppm: Parastagonospora nodorum, 264 h
Summary of the method: as §1

[2] = system: Erysiphe graminis f. sp. tritici; assay: Test J: wheat powdery mildew on wheat seedlings, sprayed the day before inoculation, visual disease rating; details: 100 = 100% disease control; for pest or weed control at 200 ppm: Blumeria graminis, 168 h
Summary of the method: as §1

Alternaria solani = assay: Test D: tomato early blight, sprayed the day before inoculation, visual disease rating; details: 100 = 100% disease control; for pest or weed control at 200 ppm: Alternaria solani, 168 h
Summary of the method: as §1

[3] = 200 ppm, 0 = no control relative to controls
[4] = 40 ppm (marked *), 0 = no control

Compound | Test I disease control rating ([1]; 200 ppm, 0 = no control) [%] | Test G disease control rating (Septoria tritici; 200 ppm, 0 = no control) [%] | Test C disease control rating (Botrytis cinerea; 200 ppm, 0 = no control) [%] | Test F disease control rating (Septoria nodorum; 200 ppm, 0 = no control) [%] | Test J disease control rating ([2]; 200 ppm, 0 = no control) [%] | Test D disease control rating (Alternaria solani; 200 ppm, 0 = no control) [%] | other results
Cc1nc(Cl)c(-c2c(F)cccc2C(F)(F)F)n1-c1ccc(Cl)cc1 [compound 94] | – | – | – | – | – | – | Test I disease control rating [1, 3]: 99%; Test G disease control rating (Septoria tritici; [3]): 95%; Test C disease control rating (Botrytis cinerea; [3]): 56%; Test F disease control rating (Septoria nodorum; [3]): 0%; Test J disease control rating [2, 3]: 100%; Test D disease control rating (Alternaria solani; [3]): 53%
Cc1nc(Cl)c(-c2c(F)cccc2F)n1-c1ccc(Cl)c(F)c1 [compound 247] | 100 | 97 | 100 | 100 | 100 | 100 | –
Cc1nc(Cl)c(-c2c(F)cccc2Cl)n1-c1ccc(Cl)cc1 [compound 53] | – | – | – | – | – | – | Test I disease control rating [1, 3]: 100%; Test G disease control rating (Septoria tritici; [3]): 95%; Test C disease control rating (Botrytis cinerea; [3]): 89%; Test F disease control rating (Septoria nodorum; [3]): 0%; Test J disease control rating [2, 3]: 99%; Test D disease control rating (Alternaria solani; [3]): 100%
Fc1ccccc1-n1c(Br)nc(Cl)c1-c1c(F)cccc1F [compound 58] | – | – | – | – | – | – | Test I disease control rating [1, 3]: 99%; Test G disease control rating (Septoria tritici; [3]): 79%; Test C disease control rating (Botrytis cinerea; [3]): 98%; Test F disease control rating (Septoria nodorum; [3]): 51%; Test J disease control rating [2, 3]: 100%; Test D disease control rating (Alternaria solani; [3]): 100%
COc1cc(F)c(-c2c(C)nc(Cl)n2-c2ccc(Cl)nc2)c(F)c1 [compound 263] | 100 | 95 | 99 | 100 | 100 | 100 | –
Cc1nc(Cl)c(-c2c(F)ccc(F)c2F)n1-c1ccc(Cl)c(F)c1 [compound 157] | 100 | 97 | 97 | 98 | 100 | 99 | –
Cc1nc(Cl)n(-c2c(F)cc(F)cc2F)c1-c1ccc(Cl)cc1 [compound 446] | – | – | – | – | – | – | Test I disease control rating [1, 4]: 68* %; Test G disease control rating (Septoria tritici; [4]): 95* %; Test C disease control rating (Botrytis cinerea; [4]): 96* %; Test F disease control rating (Septoria nodorum; [4]): 0* %; Test J disease control rating [2, 4]: 91* %; Test D disease control rating (Alternaria solani; [4]): 100* %
COc1ccc(F)c(-c2c(Cl)nc(Br)n2-c2ccc(I)cc2)c1F [compound 443] | – | – | – | – | – | – | Test I disease control rating [1, 3]: 89%; Test G disease control rating (Septoria tritici; [3]): 97%; Test C disease control rating (Botrytis cinerea; [3]): 99%; Test F disease control rating (Septoria nodorum; [3]): 99%; Test J disease control rating [2, 3]: 100%; Test D disease control rating (Alternaria solani; [3]): 99%
Fc1cc(-n2c(Cl)nc(Cl)c2-c2c(F)cccc2Cl)ccc1Cl [compound 230] | 94 | 99 | 99 | 0 | 99 | 97 | –
Cc1nc(Cl)c(-c2c(F)cccc2F)n1-c1ccc(F)c(F)c1 [compound 174] | 100 | 98 | 98 | 82 | 100 | 99 | –
COc1ccc(F)c(-c2c(Cl)nc(Br)n2-c2ccc(Cl)cc2)c1F [compound 117] | – | – | – | – | – | – | Test I disease control rating [1, 3]: 99%; Test G disease control rating (Septoria tritici; [3]): 97%; Test C disease control rating (Botrytis cinerea; [3]): 96%; Test F disease control rating (Septoria nodorum; [3]): 99%; Test J disease control rating [2, 3]: 100%; Test D disease control rating (Alternaria solani; [3]): 100%
Cc1nc(Cl)n(-c2ccc(Cl)c(F)c2)c1-c1ccccc1F [compound 260] | 94 | 92 | 100 | 0 | 99 | 95 | –
Fc1cccc(F)c1-n1cnc(Br)c1-c1ccc(Cl)cc1 [compound 200] | 0 | 45 | 0 | 0 | 21 | 0 | –
Fc1cccc(F)c1-n1c(Cl)nc(Cl)c1-c1ccc(Cl)cc1 [compound 150] | 97 | 98 | 99 | 60 | 100 | 100 | –
Cc1ncn(-c2ccc(Cl)c(F)c2)c1-c1cccnc1 [compound 252] | 0 | 13 | 15 | 0 | 0 | 0 | –
COc1cc(F)c(-c2c(Cl)ncn2-c2cccc(F)c2)c(F)c1 [Compound 246, 4-chloro-5-(2,6-difluoro-4-methoxyphenyl)-1-(3-fluorophenyl)-1H-imidazole] | – | – | – | – | – | – | pest or weed control at 200 ppm ([1]; 200 ppm, 0 = no control): 100%; pest or weed control at 200 ppm (Septoria tritici; 200 ppm, 0 = no control): 93%; pest or weed control at 200 ppm (Botrytis cinerea; 200 ppm, 0 = no control): 100%; pest or weed control at 200 ppm (Septoria nodorum; 200 ppm, 0 = no control): 95%; pest or weed control at 200 ppm ([2]; 200 ppm, 0 = no control): 99%; pest or weed control at 200 ppm (Alternaria solani; 200 ppm, 0 = no control): 100%
Fc1cccc(F)c1-n1c(Br)nc(Cl)c1-c1ccc(Cl)cc1 [compound 164] | – | – | – | – | – | – | Test I disease control rating [1, 4]: 19* %; Test G disease control rating (Septoria tritici; [4]): 96* %; Test C disease control rating (Botrytis cinerea; [4]): 91* %; Test F disease control rating (Septoria nodorum; [4]): 0* %; Test J disease control rating [2, 4]: 94* %; Test D disease control rating (Alternaria solani; [4]): 88* %
Fc1ccc(-n2c(Cl)nc(Cl)c2-c2c(F)cccc2Cl)cc1 [compound 228] | 94 | 98 | 96 | 0 | 99 | 99 | –
Fc1ccc(-n2c(Cl)nc(Cl)c2-c2c(F)cc(F)cc2F)cc1 [compound 147] | 100 | 100 | 91 | 82 | 99 | 100 | –
Cc1nc(Cl)c(-c2c(F)cccc2F)n1-c1ccccc1F [compound 64] | – | – | – | – | – | – | Test I disease control rating [1, 3]: 100%; Test G disease control rating (Septoria tritici; [3]): 95%; Test C disease control rating (Botrytis cinerea; [3]): 99%; Test F disease control rating (Septoria nodorum; [3]): 95%; Test J disease control rating [2, 3]: 96%; Test D disease control rating (Alternaria solani; [3]): 100%
N#Cc1nc(Cl)c(-c2c(F)ccc(F)c2F)n1-c1ccc(Cl)cc1 [Compound 57, 4-chloro-1-(4-chlorophenyl)-5-(2,3,6-trifluorophenyl)-1H-imidazole-2-carbonitrile] | – | – | – | – | – | – | pest or weed control at 200 ppm [1, 3]: 96%; pest or weed control at 200 ppm (Septoria tritici; [3]): 87%; pest or weed control at 200 ppm (Botrytis cinerea; [3]): 84%; pest or weed control at 200 ppm (Septoria nodorum; [3]): 0%; pest or weed control at 200 ppm [2, 3]: 100%; pest or weed control at 200 ppm (Alternaria solani; [3]): 99%
Fc1cc(-n2c(Br)nc(Cl)c2-c2c(F)cccc2Cl)ccc1Cl [compound 203] | 100 | 97 | 87 | 87 | 99 | 98 | –
COc1cc(F)c(-c2c(Cl)nc(C)n2-c2ccc(C)cc2)c(F)c1 [compound 159] | 100 | 97 | 99 | 99 | 100 | 100 | –
